Measurements as given in patent publication US9505749B2, “Quinazolinone compounds and derivatives thereof” (AMGEN INC., priority 2012, dated 2016).
Like-named read-outs stand apart in the source and are kept apart here.

Tests used:
PARP1 = PARP1 (Homo sapiens (Human), UniProt P09874); assay: PARP1 biochemical assay (Trevigen kit)
Excerpt: PARP1 biochemical assay was purchased as a kit from Trevigen (cat.#4676-096-K) and used per manufacturers recommendations.

[1] = molecular target: 6×HIS-tankyrase1 (1091-1325) (Homo sapiens (Human), UniProt O95271); assay: Tankyrase 1 biochemical assay (AlphaLisa, PARsylation); details: read-out: TNKS1 IC50
6×HIS-tankyrase1 (1091-1325), sequence (O95271 1091-1325): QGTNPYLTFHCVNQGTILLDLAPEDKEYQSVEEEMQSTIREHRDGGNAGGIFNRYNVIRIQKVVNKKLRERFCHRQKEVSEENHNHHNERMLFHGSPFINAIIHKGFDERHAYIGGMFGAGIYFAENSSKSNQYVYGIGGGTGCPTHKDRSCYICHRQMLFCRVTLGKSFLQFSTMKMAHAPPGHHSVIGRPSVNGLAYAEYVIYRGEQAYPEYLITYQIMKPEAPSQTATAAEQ

[2] = test system: Axin2 accumulation in SW480 cells; assay: Axin2 384 immunofluorescence assay; type: cell-based; details: Homo sapiens, read-out: Axin2 384 IF EC50
[3] = molecular target: 6×HIS-tankyrase 2 (946-1162) (Homo sapiens (Human), UniProt Q9H2K2); assay: Tankyrase 2 biochemical assay (AlphaLisa, PARsylation); details: 250 nM NAD; read-out: TNKS2 IC50
6×HIS-tankyrase 2 (946-1162), sequence (Q9H2K2 946-1162): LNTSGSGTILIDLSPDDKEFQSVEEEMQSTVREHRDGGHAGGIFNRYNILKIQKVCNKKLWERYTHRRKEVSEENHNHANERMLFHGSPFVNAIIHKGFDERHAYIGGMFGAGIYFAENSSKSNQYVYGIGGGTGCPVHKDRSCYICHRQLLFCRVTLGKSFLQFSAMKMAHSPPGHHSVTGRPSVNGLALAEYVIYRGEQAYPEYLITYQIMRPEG

PARP2 = PARP2 (Homo sapiens (Human), UniProt Q9UGN5); assay: PARP2 biochemical assay (BPS kit)
PARP2, sequence (Q9UGN5 whole entry): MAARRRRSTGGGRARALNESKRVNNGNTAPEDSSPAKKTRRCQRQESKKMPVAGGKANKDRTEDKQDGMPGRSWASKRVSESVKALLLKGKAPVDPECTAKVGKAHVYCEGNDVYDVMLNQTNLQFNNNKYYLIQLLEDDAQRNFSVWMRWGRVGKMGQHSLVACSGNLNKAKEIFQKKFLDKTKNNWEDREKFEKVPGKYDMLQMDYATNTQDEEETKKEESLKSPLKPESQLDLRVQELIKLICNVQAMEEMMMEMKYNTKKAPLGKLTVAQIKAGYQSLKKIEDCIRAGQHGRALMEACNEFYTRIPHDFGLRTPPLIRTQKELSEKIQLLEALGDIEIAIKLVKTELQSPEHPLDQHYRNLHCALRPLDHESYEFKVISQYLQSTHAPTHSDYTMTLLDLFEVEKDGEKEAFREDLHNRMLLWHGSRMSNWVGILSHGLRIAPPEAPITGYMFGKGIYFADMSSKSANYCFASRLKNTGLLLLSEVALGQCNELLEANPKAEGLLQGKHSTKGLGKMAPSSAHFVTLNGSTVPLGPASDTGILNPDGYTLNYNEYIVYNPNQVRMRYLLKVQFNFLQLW

[4] = test system: total β-catenin in SW480 colorectal cells; assay: Total β-catenin MSD 96-well plate assay for SW480 cells; details: Homo sapiens, SW480, read-out: SW480-Total beta-catenin (TBC) IC50 IP

PARP1, sequence (P09874 whole entry): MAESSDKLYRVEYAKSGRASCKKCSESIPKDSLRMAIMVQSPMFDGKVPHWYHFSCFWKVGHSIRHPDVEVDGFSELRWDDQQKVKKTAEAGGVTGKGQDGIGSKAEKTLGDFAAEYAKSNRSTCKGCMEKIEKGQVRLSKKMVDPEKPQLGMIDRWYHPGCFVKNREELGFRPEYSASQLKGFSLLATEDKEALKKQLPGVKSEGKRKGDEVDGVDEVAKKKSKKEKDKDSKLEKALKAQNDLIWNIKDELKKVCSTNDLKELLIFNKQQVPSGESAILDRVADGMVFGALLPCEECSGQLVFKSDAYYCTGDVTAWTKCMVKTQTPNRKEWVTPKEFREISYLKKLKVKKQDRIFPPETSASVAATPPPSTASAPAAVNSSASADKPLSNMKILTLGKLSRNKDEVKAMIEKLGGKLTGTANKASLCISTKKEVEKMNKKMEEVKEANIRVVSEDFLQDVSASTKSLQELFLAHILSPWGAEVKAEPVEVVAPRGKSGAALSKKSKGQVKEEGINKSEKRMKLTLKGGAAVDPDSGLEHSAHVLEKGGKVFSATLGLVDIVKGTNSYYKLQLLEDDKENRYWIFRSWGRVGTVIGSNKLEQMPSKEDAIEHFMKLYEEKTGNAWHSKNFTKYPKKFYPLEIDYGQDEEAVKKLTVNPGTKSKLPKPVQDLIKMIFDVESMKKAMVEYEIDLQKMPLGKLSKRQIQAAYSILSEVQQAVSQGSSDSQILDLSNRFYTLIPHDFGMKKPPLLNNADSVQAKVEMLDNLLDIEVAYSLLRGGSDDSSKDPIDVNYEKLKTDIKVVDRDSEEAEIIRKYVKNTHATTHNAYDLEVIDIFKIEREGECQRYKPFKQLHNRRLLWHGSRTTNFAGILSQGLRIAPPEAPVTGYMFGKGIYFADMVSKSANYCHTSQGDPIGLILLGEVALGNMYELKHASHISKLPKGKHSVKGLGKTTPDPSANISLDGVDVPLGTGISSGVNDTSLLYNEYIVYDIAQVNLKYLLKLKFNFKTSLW

Compound | IC50 (PARP1) [nM] | IC50 [1] [nM] | EC50 ([2]; SW480, 24 h) [nM] | IC50 [3] [nM] | IC50 (PARP2) [nM] | IC50 [4] [nM] | IC50 ([1]; 400 nM NAD, 60 minutes at RT) [nM] | EC50 ([2]; SW480 cells, 24 hours) [nM]
O=C(CCCc1nc2ccccc2c(=O)[nH]1)N1CCC(N2C(=O)Cc3ccccc32)CC1 [Example 43, 2-(4-oxo-4-(4-(2-oxo-2,3-dihydro-1H-indol-1-yl)-1-piperidinyl)butyl)-4(3H)-quinazolinone] | 6420 | 33.5 | 3880 | 16.6 | 1060 | 1910 | – | –
N#Cc1ccccc1O[C@H]1CC[C@H](NC(=O)CCCc2nc3ccccc3c(=O)[nH]2)CC1 [Example 57, N-(trans-4-(2-cyanophenoxy)cyclohexyl)-4-(4-oxo-3,4-dihydro-2-quinazolinyl)butanamide] | 5960 | – | – | 12.5 | 905 | 510 | 31.2 | 1710
N#Cc1ccc(O[C@H]2CC[C@H](NC(=O)CCCc3nc4ccccc4c(=O)[nH]3)CC2)cc1 [Example 78, N-(trans-4-(4-cyanophenoxy)cyclohexyl)-4-(4-oxo-3,4-dihydro-2-quinazolinyl)butanamide] | 558 | – | – | 0.434 | 246 | 7.14 | 2.23 | 49.2
N#Cc1cccc(O[C@H]2CC[C@H](NC(=O)CCCc3nc4ccccc4c(=O)[nH]3)CC2)c1 [Example 58, N-(trans-4-(3-cyanophenoxy)cyclohexyl)-4-(4-oxo-3,4-dihydro-2-quinazolinyl)butanamide] | 1580 | – | – | 1.25 | 983 | 98.9 | 3.26 | 354
Nc1cc(=O)[nH]c(SCCC(=O)N[C@H]2CC[C@H](c3nnc(-c4ccccc4)o3)CC2)n1 [Example 91, 3-((4-amino-6-oxo-1,6-dihydro-2-pyrimidinyl)sulfanyl)-N-(trans-4-(5-phenyl-1,3,4-oxadiazol-2-yl)cyclohexyl)propanamide] | > 85000 | – | – | 8.78 | > 170000 | 1680 | 3.97 | 1020
O=C(CCCc1nc2ccccc2c(=O)[nH]1)N1CCC(n2c(=O)oc3ccccc32)CC1 [Example 44, 2-(4-oxo-4-(4-(2-oxo-1,3-benzoxazol-3(2H)-yl)-1-piperidinyl)butyl)-4(3H)-quinazolinone] | 7610 | – | – | 3.53 | 363 | 681 | 8.97 | 2930
O=C(CCCc1nc2ccccc2c(=O)[nH]1)N[C@H]1CC[C@H](Oc2cccc(Cl)c2)CC1 [Example 66, N-(trans-4-(3-chlorophenoxy)cyclohexyl)-4-(4-oxo-3,4-dihydro-2-quinazolinyl)butanamide] | 1390 | – | – | 1.02 | 998 | 614 | 3.11 | 628
N#Cc1ccc(-c2nnc(C3CCN(C(=O)CCCc4nc5ccccc5c(=O)[nH]4)CC3)o2)cc1 [Example 21, 4-(5-(1-(4-(4-oxo-3,4-dihydroquinazolin-2-yl)butanoyl)piperidin-4-yl)-1,3,4-oxadiazol-2-yl)benzonitrile] | 2030 | – | – | 4.89 | 1450 | 154 | 17.1 | 242
O=C(CCSc1nc2ccccc2c(=O)[nH]1)N1CCC(c2nnc(-c3ccccc3)o2)CC1 [Example 83, 2-((3-oxo-3-(4-(5-phenyl-1,3,4-oxadiazol-2-yl)piperidin-1-yl)propyl)thio)quinazolin-4(3H)-one] | 1510 | – | – | 12.5 | 345 | 726 | 31.4 | 2680
O=C(CCCc1nc2ccccc2c(=O)[nH]1)N1CCC(c2nnc(-c3ccccc3Cl)o2)CC1 [Example 16, 2-(4-(4-(5-(2-chlorophenyl)-1,3,4-oxadiazol-2-yl)-1-piperidinyl)-4-oxobutyl)-4(3H)-quinazolinone] | 5070 | – | – | 17.9 | 560 | 1190 | 107 | 1900
O=C(CCc1nc2ccccc2c(=O)[nH]1)N1CCC(c2nnc(-c3ccccc3)o2)CC1 [Example 98, 2-(3-oxo-3-(4-(5-phenyl-1,3,4-oxadiazol-2-yl)piperidin-1-yl)propyl)quinazolin-4(3H)-one] | 3460 | – | – | 199 | 806 | 2730 | 161 | 3990
O=C(CCCSc1nc2ccccc2c(=O)[nH]1)N1CCC(c2nnc(-c3ccccc3)o2)CC1 [Example 111, 2-((4-oxo-4-(4-(5-phenyl-1,3,4-oxadiazol-2-yl)piperidin-1-yl)butyl)thio)quinazolin-4(3H)-one] | 7630 | – | – | 29.5 | 4670 | > 10000 | 88.4 | 2950
O=C(CCCc1nc2ccccc2c(=O)[nH]1)N1CCC(c2nnc(-c3ccccc3)s2)CC1 [Example 9, 2-(4-oxo-4-(4-(5-phenyl-1,3,4-thiadiazol-2-yl)-1-piperidinyl)butyl)-4(3H)-quinazolinone] | 2860 | – | – | 18.5 | 471 | 56.6 | 168 | 1230
O=C(CCCc1nc2ccccc2c(=O)[nH]1)N1CCC(c2nnc(-c3ccncc3)o2)CC1 [Example 19, 2-(4-oxo-4-(4-(5-(4-pyridinyl)-1,3,4-oxadiazol-2-yl)-1-piperidinyl)butyl)-4(3H)-quinazolinone] | 4920 | – | – | 4.86 | 1120 | 248 | 15 | 291
O=C(CCCc1nc2ccccc2c(=O)[nH]1)N1CCC(n2c(=O)sc3ccccc32)CC1 [Example 50, 2-(4-oxo-4-(4-(2-oxo-1,3-benzothiazol-3(2H)-yl)-1-piperidinyl)butyl)-4(3H)-quinazolinone trifluoroacetic acid] | 10700 | – | – | 1.81 | 748 | 256 | 6.49 | 1550
COc1cccc(-c2nnc([C@H]3CC[C@H](NC(=O)CCCc4nc5ccccc5c(=O)[nH]4)CC3)o2)c1 [Example 32, N-(trans-4-(5-(3-methoxyphenyl)-1,3,4-oxadiazol-2-yl)cyclohexyl)-4-(4-oxo-3,4-dihydro-2-quinazolinyl)butanamide] | 801 | – | – | 0.301 | 828 | 15.7 | 0.495 | 32.5
O=C(CCCc1nc2ccccc2c(=O)[nH]1)N[C@H]1CC[C@H](c2nnc(-c3cccc(Cl)c3)o2)CC1 [Example 36, N-(trans-4-(5-(3-chlorophenyl)-1,3,4-oxadiazol-2-yl)cyclohexyl)-4-(4-oxo-3,4-dihydro-2-quinazolinyl)butanamide 2,2,2-trifluoroacetate] | 1140 | – | – | 0.27 | 701 | 29.9 | 0.367 | 22
O=C(CCSc1nc2ccccc2c(=O)[nH]1)N[C@H]1CC[C@H](c2nnc(-c3ccc(F)c(Cl)c3)o2)CC1 [Example 122, N-((1r,4r)-4-(5-(3-chloro-4-fluorophenyl)-1,3,4-oxadiazol-2-yl)cyclohexyl)-3-((4-oxo-3,4-dihydroquinazolin-2-yl)thio)propanamide] | > 9440 | – | – | 1.38 | 7690 | 3.04 | 0.153 | 4.47
O=C(CCCc1nc2ccccc2c(=O)[nH]1)N1CCC(n2c(=O)oc3cc(F)ccc32)CC1 [Example 53, 2-(4-(4-(6-fluoro-2-oxo-1,3-benzoxazol-3(2H)-yl)-1-piperidinyl)-4-oxobutyl)-4(3H)-quinazolinone trifluoroacetic acid] | 2570 | – | – | 0.593 | 998 | 50.3 | 3.17 | 359
COc1ccc2[nH]c(=O)n(C3CCN(C(=O)CCCc4nc5ccccc5c(=O)[nH]4)CC3)c2c1 [Example 34, 2-(4-(4-(6-methoxy-2-oxo-2,3-dihydro-1H-benzimidazol-1-yl)-1-piperidinyl)-4-oxobutyl)-4(3H)-quinazolinone] | 629 | – | – | 0.981 | 431 | 101 | 1.97 | 96.9
COc1cccc(-c2nnc(C3CCN(C(=O)CCCc4nc5ccccc5c(=O)[nH]4)CC3)o2)c1 [Example 24, 2-(4-(4-(5-(3-methoxyphenyl)-1,3,4-oxadiazol-2-yl)piperidin-1-yl)-4-oxobutyl)quinazolin-4(3H)-one] | 1690 | – | – | 4.95 | 1110 | 226 | 18.8 | 257
O=C(CCCc1nc2ccccc2c(=O)[nH]1)N1CCC(c2n[nH]c3ccccc23)CC1 [Example 48, 2-(4-(4-(1H-indazol-3-yl)-1-piperidinyl)-4-oxobutyl)-4(3H)-quinazolinone trifluoroacetic acid] | 1980 | – | – | 0.596 | 1350 | 111 | 5.15 | 417
